# Test results published in patent US9353089B2, “Compositions and methods for the treatment of malaria” (Saint Louis University, priority 2013, dated 2016).
# System: Plasmodium falciparum 3D7 (CQ-sensitive)
# Experiment: In vitro antimalarial assay (malaria SYBR Green I-based fluorescence, MSF), 3D7
# Type: cell-based
# Conditions: 3D7, 72 h, read-out: 3D7 % inh @ 1 μM
# Description: Stock solutions of each test drug were prepared in DMSO at a concentration of 20 mM. The drug solutions were serially diluted with culture medium and distributed to asynchronous parasite cultures on 96-well plates in quadruplicate in a total volume of 100 μL to achieve 0.5% parasitemia with a 2% hematocrit in a total volume of 100 pt. […] After incubation, 100 μL of lysis buffer with 0.2 μL/mL SYBR Green I was added to each well.
# Antimalarial potency of compounds was determined by this technique for both Plasmodium falciparum 3D7 (CQ-sensitive) and Dd2 (multi-drug resistant) strains.
row,SMILES,inhibition of growth at 1 µM [%]
1,"CC(C)COc1cccc(C2(c3cccc(-c4cccnc4)c3)NC(=N)N(C3CCOCC3)C2=O)c1 (stereo not shown) [Example 404, 2-imino-5-(3-isobutoxyphenyl)-5-(3-(pyridin-3-yl)phenyl)-3-(tetrahydro-2H-pyran-4-yl)imidazolidin-4-one]",7

# Same assay, conditions: 3D7, Table 11, read-out: Pf 3D7 IC50
row,SMILES,IC50 [nM]
1,"COc1cccc(C2(c3cccc(-c4ccncc4)c3)NC(=N)N(C3CCCCC3)C2=O)c1 (stereo not shown) [Example 225, 3-cyclohexyl-2-imino-5-(3-methoxy-phenyl)-5-[3-(pyridin-4-yl)phenyl]imidazolidin-4-one]",318
2,"Cc1cccc(C2(c3cccc(C)c3)NC(=N)N(C3CCCCC3)C2=O)c1 [Example 237, 3-cyclohexyl-2-imino-5,5-bis(3-methylphenyl)-imidazolidin-4-one]",533
3,"N=C1NC(c2ccccc2)(c2cccc(Oc3ccccc3)c2)C(=O)N1C1CCCCC1 (stereo not shown) [Example 238, 3-cyclohexyl-2-imino-5-(3-phenoxyphenyl)-5-phenylimidazolidin-4-one]",424
4,"N=C1NC(c2cccc(Cl)c2)(c2cccc(Cl)c2)C(=O)N1C1CCCCC1 [Example 267, 5,5-bis(3-chlorophenyl)-3-cyclohexyl-2-iminoimidazolidin-4-one]",1060
5,"N=C1NC(c2cccc(-c3cccnc3)c2)(c2cccc(-c3cccnc3)c2)C(=O)N1C1CCCCC1 [Example 269, 3-cyclohexyl-2-imino-5,5-bis[3-(pyridin-3-yl)phenyl]imidazolidin-4-one]",725

# Same assay, conditions: 3D7, Table 13, read-out: 3D7 IC50
row,SMILES,IC50 [nM]
1,"COc1ccc(C2(c3ccc(OC)cc3)NC(=N)N(Cc3cccc4ccccc34)C2=O)cc1 [Example 223, 2-imino-5,5-bis(4-methoxyphenyl)-3-(naphthalen-1-ylmethyl)-imidazolidin-4-one]",644
2,"COc1cccc(C2(c3cccc(-c4ccncc4)c3)NC(=N)N(C3CCCCC3)C2=O)c1 (stereo not shown) [Example 225, 3-cyclohexyl-2-imino-5-(3-methoxy-phenyl)-5-[3-(pyridin-4-yl)phenyl]imidazolidin-4-one]",318
3,"COc1cccc(C2(c3cccc(-c4ccccn4)c3)NC(=N)N(C3CCCCC3)C2=O)c1 (stereo not shown) [Example 227, 3-cyclohexyl-2-imino-5-(3-methoxyphenyl)-5-[3-(pyridin-2-yl)phenyl]-imidazolidin-4-one]",657
4,"COc1ccc(C2(c3ccc(OC)cc3)NC(=N)N(Cc3ccccn3)C2=O)cc1 [Example 229, 2-imino-5,5-bis(4-methoxyphenyl)-3-(pyridin-2-ylmethyl)-imidazolidin-4-one]",682
5,COc1cccc(C2(c3cccc(OCc4ccccc4)c3)NC(=N)N(C3CCCCC3)C2=O)c1 (stereo not shown) [Example 230],828
6,"COc1ccc(C2(c3ccc(OC)cc3)NC(=N)N(Cc3ccc(C)cc3)C2=O)cc1 [Example 231, 2-imino-5,5-bis(4-methoxyphenyl)-3-[(4-methylphenyl)-methyl]imidazolidin-4-one]",795
7,"COc1ccc(C2(c3ccc(OC)cc3)NC(=N)N(Cc3ccc(Cl)cc3)C2=O)cc1 [Example 232, 3-[(4-chlorophenyl)-methyl]-2-imino-5,5-bis(4-methoxyphenyl)-imidazolidin-4-one]",1270
8,"COc1ccc(CN2C(=N)NC(c3ccc(OC)cc3)(c3ccc(OC)cc3)C2=O)cc1 [Example 233, 2-imino-5,5-bis(4-methoxyphenyl)-3-[(4-methoxyphenyl)-methyl]imidazolidin-4-one]",554
9,"COc1ccc(C2(c3ccc(OC)cc3)NC(=N)N(Cc3ccccc3Cl)C2=O)cc1 [Example 234, 3-[(2-chlorophenyl)-methyl]-2-imino-5,5-bis(4-methoxyphenyl)-imidazolidin-4-one]",894
10,"COc1ccc(C2(c3ccc(OC)cc3)NC(=N)N(Cc3cccc(Cl)c3)C2=O)cc1 [Example 235, 3-[(3-chlorophenyl)-methyl]-2-imino-5,5-bis(4-methoxyphenyl)-imidazolidin-4-one]",684
11,"COc1ccc(C2(c3ccc(OC)cc3)NC(=N)N(Cc3cccc(OC)c3)C2=O)cc1 [Example 236, 2-imino-5,5-bis(4-methoxyphenyl)-3-[(3-methoxyphenyl)-methyl]imidazolidin-4-one]",708
12,"Cc1cccc(C2(c3cccc(C)c3)NC(=N)N(C3CCCCC3)C2=O)c1 [Example 237, 3-cyclohexyl-2-imino-5,5-bis(3-methylphenyl)-imidazolidin-4-one]",533
13,"N=C1NC(c2ccccc2)(c2cccc(Oc3ccccc3)c2)C(=O)N1C1CCCCC1 (stereo not shown) [Example 238, 3-cyclohexyl-2-imino-5-(3-phenoxyphenyl)-5-phenylimidazolidin-4-one]",424
14,"COc1ccc(C2(c3ccc(OC)cc3)NC(=N)N(Cc3cccc(C(F)(F)F)c3)C2=O)cc1 [Example 249, 2-imino-5,5-bis(4-methoxyphenyl)-3-{[3-(trifluoromethyl)-phenyl]methyl} imidazolidin-4-one]",1520
15,"COc1ccc(C2(c3ccc(OC)cc3)NC(=N)N(C3CCN(Cc4ccccc4)CC3)C2=O)cc1 [Example 250, 3-(1-benzylpiperidin-4-yl)-2-imino-5,5-bis(4-methoxyphenyl)-imidazolidin-4-one]",2740
16,"COc1ccc(C2(c3ccc(OC)cc3)NC(=N)N(Cc3cccc(C)c3)C2=O)cc1 [Example 253, 2-imino-5,5-bis(4-methoxyphenyl)-3-[(3-methylphenyl)-methyl]imidazolidin-4-one]",381
17,"N=C1NC(c2cccc(Cl)c2)(c2cccc(Cl)c2)C(=O)N1C1CCCCC1 [Example 267, 5,5-bis(3-chlorophenyl)-3-cyclohexyl-2-iminoimidazolidin-4-one]",1060
18,"N=C1NC(c2cccc(-c3cccnc3)c2)(c2cccc(-c3cccnc3)c2)C(=O)N1C1CCCCC1 [Example 269, 3-cyclohexyl-2-imino-5,5-bis[3-(pyridin-3-yl)phenyl]imidazolidin-4-one]",725
19,"COc1ccc(C2(c3ccc(OC)cc3)NC(=N)N(C3CCC(C)CC3)C2=O)cc1 (stereo not shown) [Example 270, 2-imino-5,5-bis(4-methoxyphenyl)-3-(4-methylcyclohexyl)imidazolidin-4-one]",724

row,SMILES,IC50 [nM]
1,"COc1ccc(C2(c3ccc(OC)cc3)NC(=N)N(Cc3cc(C)ccc3C)C2=O)cc1 [Example 272, 3-[(2,5-dimethylphenyl)-methyl]-2-imino-5,5-bis(4-methoxyphenyl) imidazolidin-4-one]",976
2,"CNC(=O)c1cccc(C2(c3ccccc3)NC(=N)N(C3CCCCC3)C2=O)c1 (stereo not shown) [Example 273, 3-(1-cyclohexyl-2-imino-5-oxo-4-phenylimidazolidin-4-yl)-N-methylbenzamide]",1380
3,"COc1ccc(C2(c3ccc(OC)cc3)NC(=N)N(Cc3ccccc3F)C2=O)cc1 [Example 306, 3-[(2-fluorophenyl)-methyl]-2-imino-5,5-bis(4-methoxyphenyl)-imidazolidin-4-one]",5230
4,"COc1ccc(C2(c3ccc(OC)cc3)NC(=N)N(Cc3ccccc3Br)C2=O)cc1 [Example 307, 3-[(2-bromophenyl)-methyl]-2-imino-5,5-bis(4-methoxy-phenyl)imidazolidin-4-one]",5560
5,"CC(C)COc1cccc(C2(c3cccc(OCC(C)C)c3)NC(=N)N(C3CCOCC3)C2=O)c1 [Example 389, 2-imino-5,5-bis[3-(2-methylpropoxy)phenyl]-3-(oxan-4-yl)imidazolidin-4-one]",> 5000
6,"CC(C)COc1ccc(C2(c3ccc(OCC(C)C)cc3)NC(=N)N(C3CCOCC3)C2=O)cc1 [Example 390, 2-imino-5,5-bis[4-(2-methylpropoxy)phenyl]-3-(oxan-4-yl)imidazolidin-4-one]",4080
7,"CC(C)COc1ccc(C2(c3cccc(-c4cccnc4)c3)NC(=N)N(C3CCOCC3)C2=O)cc1 (stereo not shown) [Example 412, 2-imino-5-(4-isobutoxyphenyl)-5-(3-(pyridin-3-yl)phenyl)-3-(tetrahydro-2H-pyran-4-yl)imidazolidin-4-one]",4210
8,"N#Cc1cccc(-c2cccc(C3(c4ccccc4)NC(=N)N(C4CCOCC4)C3=O)c2)c1 (stereo not shown) [Example 413, 3′-(2-imino-5-oxo-4-phenyl-1-(tetrahydro-2H-pyran-4-yl)imidazolidin-4-yl)-[1,1′-biphenyl]-3-carbonitrile]",1990
9,"N#Cc1cccc(-c2cccc(C3(C4CC4)NC(=N)N(C4CCOCC4)C3=O)c2)c1 (stereo not shown) [Example 414, 3′-(4-cyclopropyl-2-imino-5-oxo-1-(tetrahydro-2H-pyran-4-yl)imidazolidin-4-yl)-[1,1′-biphenyl]-3-carbonitrile]",293
10,"N#Cc1cccc(-c2cccc(C3(C4CC4)NC(=N)N(C4CCCCC4)C3=O)c2)c1 (stereo not shown) [Example 486, 3′-(1-cyclohexyl-4-cyclopropyl-2-imino-5-oxoimidazolidin-4-yl)-[1,1′-biphenyl]-3-carbonitrile]",1460
11,"COc1ccc(C2(C3CC3)NC(=N)N(C3CCOCC3)C2=O)cc1-c1cccnc1 (stereo not shown) [Example 490, 5-cyclopropyl-2-imino-5-(4-methoxy-3-(pyridin-3-yl)phenyl)-3-(tetrahydro-2H-pyran-4-yl)imidazolidin-4-one]",515
12,"N#Cc1cccc(-c2cccc(C3(C4CCCCC4)NC(=N)N(C4CCOCC4)C3=O)c2)c1 (stereo not shown) [Example 492, 3′-(4-cyclohexyl-2-imino-5-oxo-1-(tetrahydro-2H-pyran-4-yl)imidazolidin-4-yl)-[1,1′-biphenyl]-3-carbonitrile]",1110
13,"COc1ccc(C2(C3CCCC3)NC(=N)N(C3CCCCC3)C2=O)cc1 (stereo not shown) [Example 493, 3-cyclohexyl-5-cyclopentyl-2-imino-5-(4-methoxyphenyl)imidazolidin-4-one]",640
14,"N=C1NC(c2ccc(OC(F)(F)F)cc2)(C2CC2)C(=O)N1C1CCOCC1 (stereo not shown) [Example 494, 5-cyclopropyl-2-imino-3-(tetrahydro-2H-pyran-4-yl)-5-(4-(trifluoromethoxy)phenyl)imidazolidin-4-one]",680
15,"N=C1NC(c2cccc(Cl)c2)(C2CC2)C(=O)N1C1CCOCC1 (stereo not shown) [Example 495, 5-(3-chlorophenyl)-5-cyclopropyl-2-imino-3-(tetrahydro-2H-pyran-4-yl)imidazolidin-4-one]",930
16,"N=C1NC(c2ccc(Cl)cc2)(C2CC2)C(=O)N1C1CCOCC1 (stereo not shown) [Example 496, 5-(4-chlorophenyl)-5-cyclopropyl-2-imino-3-(tetrahydro-2H-pyran-4-yl)imidazolidin-4-one]",350
17,"C#Cc1cccc(-c2cccc(C3(C4CC4)NC(=N)N(C4CCOCC4)C3=O)c2)c1 (stereo not shown) [Example 497, 5-cyclopropyl-5-(3′-ethynyl-[1,1′-biphenyl]-3-yl)-2-imino-3-(tetrahydro-2H-pyran-4-yl)imidazolidin-4-one]",1150
18,"N=C1NC(c2ccc(F)c(F)c2)(C2CC2)C(=O)N1C1CCOCC1 (stereo not shown) [Example 498, 5-cyclopropyl-5-(3,4-difluorophenyl)-2-imino-3-(tetrahydro-2H-pyran-4-yl)imidazolidin-4-one]",1290
